Results: ChEMBL document CHEMBL1141299, “Hologram QSAR model for the prediction of human oral bioavailability” (Bioorg Med Chem, 2007)

Assay: Oral bioavailability in human
Conditions: in vivo

Structure (SMILES) | bioavailability [%]
Cc1c(OCC(F)(F)F)ccnc1C[S+]([O-])c1nc2ccccc2[nH]1 (stereo unspecified) [LANSOPRAZOLE] | 80
CCN[C@H](C)Cc1cccc(C(F)(F)F)c1 [LEVOFENFLURAMINE] | 89
CCC(=O)C(C[C@@H](C)N(C)C)(c1ccccc1)c1ccccc1 [LEVOMETHADONE] | 92
CC[C@H](OC(C)=O)C(C[C@H](C)N(C)C)(c1ccccc1)c1ccccc1 [LEVOMETHADYL ACETATE] | 47
CN1C[C@H](CNC(=O)OCc2ccccc2)C[C@@H]2c3cccc4c3c(cn4C)C[C@H]21 [METERGOLINE] | 23
CC[C@@H](CO)NC(=O)[C@@H]1C=C2c3cccc4c3c(cn4C)C[C@H]2N(C)C1 [METHYSERGIDE] | 13
Cc1ncc2n1-c1ccc(Cl)cc1C(c1ccccc1F)=NC2 [MIDAZOLAM] | 40.5
COc1c(N2C[C@@H]3CCCN[C@@H]3C2)c(F)cc2c(=O)c(C(=O)O)cn(C3CC3)c12 [MOXIFLOXACIN] | 90
Oc1ccc2c3c1O[C@H]1[C@@H](O)CC[C@@]4(O)[C@@H](C2)N(CC2CCC2)CC[C@]314 [NALBUPHINE] | 11
C=CCN1CC[C@]23c4c5ccc(O)c4O[C@H]2C(=O)CC[C@@]3(O)[C@H]1C5 [NALOXONE] | 2
O=C1CC[C@@]2(O)[C@H]3Cc4ccc(O)c5c4[C@@]2(CCN3CC2CC2)[C@H]1O5 [NALTREXONE] | 20
Cc1ccnc2c1NC(=O)c1cccnc1N2C1CC1 [NEVIRAPINE] | 93
COC(=O)C1=C(C)NC(C)=C(C(=O)OC)C1c1ccccc1[N+](=O)[O-] [NIFEDIPINE] | 50
O=C1CN=C(c2ccccc2)c2cc([N+](=O)[O-])ccc2N1 [NITRAZEPAM] | 78
C[C@H](N)Cc1cccc(C(F)(F)F)c1 [NORDEXFENFLURAMINE] | 85
CCOC(=O)C1=C[C@@H](OC(CC)CC)[C@H](NC(C)=O)[C@@H](N)C1 [OSELTAMIVIR] | 75
c1ccc(C2(N3CCCCC3)CCCCC2)cc1 [PHENCYCLIDINE] | 72
CCC1(c2ccccc2)C(=O)NC(=O)NC1=O [PHENOBARBITAL] | 96
CCC(C(N)=O)(C(N)=O)c1ccccc1 [PHENYLETHYLMALONAMIDE] | 91
CNC(=O)Oc1ccc2c(c1)[C@]1(C)CCN(C)[C@@H]1N2C [PHYSOSTIGMINE] | 6
C[C@@H]1O[C@@H](O[C@@H]2C=C3CC[C@@H]4[C@H](CC[C@]5(C)[C@@H](c6ccc(=O)oc6)CC[C@]45O)[C@@]3(C)CC2)[C@H](O)[C@H](O)[C@H]1O [PROSCILLARIDIN] | 7
NC(=O)c1ncn([C@@H]2O[C@H](CO)[C@@H](O)[C@H]2O)n1 [RIBAVIRIN] | 64
Cc1nc2n(c(=O)c1CCN1CCC(c3noc4cc(F)ccc34)CC1)CCCC2 [RISPERIDONE] | 70

Same assay, conditions: in vivo, F

Structure (SMILES) | bioavailability [%]
CN(C)CCCN1c2ccccc2CCc2ccccc21 [IMIPRAMINE] | 42
CCC(C)n1ncn(-c2ccc(N3CCN(c4ccc(OC[C@H]5CO[C@](Cn6cncn6)(c6ccc(Cl)cc6Cl)O5)cc4)CC3)cc2)c1=O (stereo partly specified) [ITRACONAZOLE] | 55
Nc1ccn([C@@H]2CS[C@H](CO)O2)c(=O)n1 [LAMIVUDINE] | 86
N#Cc1ccc(C(c2ccc(C#N)cc2)n2cncn2)cc1 [LETROZOLE] | 99.9
C#C[C@]1(O)CC[C@H]2[C@@H]3CCC4=CC(=O)CC[C@@H]4[C@H]3CC[C@@]21CC [LEVONORGESTREL] | 87
C=C1c2cccc(O)c2C(=O)C2=C(O)[C@]3(O)C(=O)C(C(N)=O)=C(O)[C@@H](N(C)C)[C@@H]3[C@@H](O)[C@H]12 [METHACYCLINE] | 58
Cn1cc[nH]c1=S [METHIMAZOLE] | 93
CN(Cc1cnc2nc(N)nc(N)c2n1)c1ccc(C(=O)N[C@@H](CCC(=O)O)C(=O)O)cc1 [METHOTREXATE] | 70
C[C@H]1C[C@@H]2[C@H]([C@@H](O)C[C@@]3(C)[C@H]2CC[C@]3(O)C(=O)CO)[C@@]2(C)C=CC(=O)C=C12 [METHYLPREDNISOLONE] | 82
CS(=O)(=O)c1ccc2c(c1)N(CCCN1CCC(C(N)=O)CC1)c1ccccc1S2 [METOPIMAZINE] | 19
Cc1[nH]c(=O)c(C#N)cc1-c1ccncc1 [MILRINONE] | 92
CN(C)c1ccc(O)c2c1C[C@H]1C[C@H]3[C@H](N(C)C)C(O)=C(C(N)=O)C(=O)[C@@]3(O)C(O)=C1C2=O [MINOCYCLINE] | 97.5
CCOC(=O)[C@H](CCc1ccccc1)N[C@@H](C)C(=O)N1Cc2cc(OC)c(OC)cc2C[C@H]1C(=O)O [MOEXIPRIL] | 13
CC(C)(O)c1ccccc1CC[C@@H](SCC1(CC(=O)O)CC1)c1cccc(/C=C/c2ccc3ccc(Cl)cc3n2)c1 [MONTELUKAST] | 73
COc1c(C)c2c(c(O)c1C/C=C(\C)CCC(=O)O)C(=O)OC2 [MYCOPHENOLIC ACID] | 72
O=C1CN(/N=C/c2ccc([N+](=O)[O-])o2)C(=O)N1 [NITROFURANTOIN] | 87
CNC(=C[N+](=O)[O-])NCCSCc1csc(CN(C)C)n1 [NIZATIDINE] | 70
C#C[C@]1(O)CC[C@H]2[C@@H]3CCC4=CC(=O)CC[C@@H]4[C@H]3CC[C@@]21C [NORETHINDRONE] | 64
CNC/C=C(\c1ccc(Br)cc1)c1cccnc1 [NORZIMELIDINE] | 66
CCCc1nc(C(C)(C)O)c(C(=O)O)n1Cc1ccc(-c2ccccc2-c2nnn[nH]2)cc1 [OLMESARTAN] | 26
CN(C)[C@@H]1C(O)=C(C(N)=O)C(=O)[C@@]2(O)C(O)=C3C(=O)c4c(O)cccc4[C@@](C)(O)[C@H]3[C@H](O)[C@@H]12 [OXYTETRACYCLINE] | 58
COc1ccnc(C[S+]([O-])c2nc3ccc(OC(F)F)cc3[nH]2)c1OC (stereo unspecified) [PANTOPRAZOLE] | 77
CC1(C)S[C@@H]2[C@H](NC(=O)Cc3ccccc3)C(=O)N2[C@H]1C(=O)O [PENICILLIN G] | 22.5
O=C1NC(=O)C(c2ccccc2)(c2ccccc2)N1 [PHENYTOIN] | 90
CN(C)S(=O)(=O)c1ccc2c(c1)N(CCCN1CCC(CCO)CC1)c1ccccc1S2 [PIPOTIAZINE] | 26
O=C(O)Cc1nn(-c2ccc(F)cc2)cc1-c1ccc(Cl)cc1 [PIRAZOLAC] | 93.5
CN1C(C(=O)Nc2ccccn2)=C(O)c2ccccc2S1(=O)=O [PIROXICAM] | 100

Structure (SMILES) | bioavailability [%]
CC[C@H](C)C(=O)O[C@H]1C[C@H](O)C=C2C=C[C@H](C)[C@H](CC[C@@H](O)C[C@@H](O)CC(=O)O)[C@H]21 [PRAVASTATIN] | 17
COc1cc2nc(N3CCN(C(=O)c4ccco4)CC3)nc(N)c2cc1OC [PRAZOSIN] | 68
C[C@]12C=CC(=O)C=C1CC[C@@H]1[C@@H]2[C@@H](O)C[C@@]2(C)[C@H]1CC[C@]2(O)C(=O)COP(=O)(O)O [PREDNISOLONE PHOSPHORIC ACID] | 82
C[C@]12C=CC(=O)C=C1CC[C@@H]1[C@@H]2C(=O)C[C@@]2(C)[C@H]1CC[C@]2(O)C(=O)CO [PREDNISONE] | 80
CCC1(c2ccccc2)C(=O)NCNC1=O [PRIMIDONE] | 92
CCN(CC)CCNC(=O)c1ccc(N)cc1 [PROCAINAMIDE] | 83
CCCc1cc(=O)[nH]c(=S)[nH]1 [PROPYLTHIOURACIL] | 78
CNCCCC1c2ccccc2C=Cc2ccccc21 [PROTRIPTYLINE] | 85
C=C[C@H]1C[N@@]2CC[C@H]1C[C@@H]2[C@@H](O)c1ccnc2ccc(OC)cc12 [QUINIDINE] | 75
CC(C)(C)NC[C@@H](O)COc1cccc2c1C[C@H](O)[C@H](O)C2 [R-NADOLOL] | 34
O=C(c1ccc(OCCN2CCCCC2)cc1)c1c(-c2ccc(O)cc2)sc2cc(O)ccc12 [RALOXIFENE] | 2
CCOc1cc(CC(=O)N[C@@H](CC(C)C)c2ccccc2N2CCCCC2)ccc1C(=O)O [REPAGLINIDE] | 56
CO[C@H]1/C=C/O[C@@]2(C)Oc3c(C)c(O)c4c(O)c(c(/C=N/N5CCN(C)CC5)c(O)c4c3C2=O)NC(=O)/C(C)=C\C=C\[C@H](C)[C@H](O)[C@@H](C)[C@@H](O)[C@@H](C)[C@H](OC(C)=O)[C@@H]1C [RIFAMPIN] | 88.8
CN(C)CCc1c[nH]c2ccc(Cn3cncn3)cc12 [RIZATRIPTAN] | 45
CS(=O)(=O)c1ccc(C2=C(c3ccccc3)C(=O)OC2)cc1 [ROFECOXIB] | 93
CCCN(CCC)CCc1cccc2c1CC(=O)N2 [ROPINIROLE] | 55
CC(C)(C)NC[C@H](O)COc1cccc2c1C[C@H](O)[C@H](O)C2 [S-NADOLOL] | 34
Cc1cccc(C)c1NC(=O)[C@H](C)N [S-TOCAINIDE] | 89
O=C1NS(=O)(=O)c2ccccc21 [SACCHARIN] | 84
CO[C@H]1C[C@@H]2CC[C@@H](C)[C@@](O)(O2)C(=O)C(=O)N2CCCC[C@H]2C(=O)O[C@H]([C@H](C)C[C@@H]2CC[C@@H](O)[C@H](OC)C2)CC(=O)[C@H](C)/C=C(\C)[C@@H](O)[C@@H](OC)C(=O)[C@H](C)C[C@H](C)/C=C/C=C/C=C/1C [SIROLIMUS] | 14
CC(=O)S[C@@H]1CC2=CC(=O)CC[C@]2(C)[C@H]2CC[C@@]3(C)[C@@H](CC[C@@]34CCC(=O)O4)[C@H]12 [SPIRONOLACTONE] | 25
Cc1cn([C@H]2C=C[C@@H](CO)O2)c(=O)[nH]c1=O [STAVUDINE] | 82
C=CC[C@@H]1/C=C(\C)C[C@H](C)C[C@H](OC)[C@H]2O[C@@](O)(C(=O)C(=O)N3CCCC[C@H]3C(=O)O[C@H](/C(C)=C/[C@@H]3CC[C@@H](O)[C@H](OC)C3)[C@H](C)[C@@H](O)CC1=O)[C@H](C)C[C@@H]2OC [TACROLIMUS ANHYDROUS] | 17
C[C@@H](C(=O)O)c1ccc(-c2ccccc2)c(F)c1 [TARENFLURBIL] | 92
Cc1scc2c1N(C(=O)CN1CCN(C)CC1)c1ccccc1NC2=O [TELENZEPINE] | 54
CC[C@H]1OC(=O)[C@H](C)C(=O)[C@H](C)[C@@H](O[C@@H]2O[C@H](C)C[C@H](N(C)C)[C@H]2O)[C@](C)(OC)C[C@@H](C)C(=O)[C@H](C)[C@H]2N(CCCCn3cnc(-c4cccnc4)c3)C(=O)O[C@]12C [TELITHROMYCIN] | 57
